Experimental data as given in US7566712B2, “Biaryl piperazinyl-pyridine analogues” (Neurogen Corporation, priority 2003, dated 2009).
pIC50: −log10 of the molar value.

The molecules below were run against T1, human capsaicin receptor (Homo sapiens, UniProt Q8NER1) (assay: Calcium mobilization assay, determination of antagonist activity (Example 6)). Conditions: Table II; IC50 determined as described in Example 6.
T1 construct: pBK-CMV expression construct encoding the full length human capsaicin receptor; expressed in transfected cells
Type: cell-based
Method: A cDNA encoding full length human capsaicin receptor (SEQ ID NO: 1, 2 or 3 of U.S. Pat. No. 6,482,611) was subcloned in the plasmid pBK-CMV (Stratagene, La Jolla, Calif.) for recombinant expression in mammalian cells.
Human embryonic kidney (HEK293) cells were transfected with the pBK-CMV expression construct encoding the full length human capsaicin receptor using standard methods. The transfected cells were selected for two weeks in media containing G418 (400 μg/ml) to obtain a pool of stably transfected cells. Independent clones were isolated from this pool by limiting dilution to obtain clonal stable cell lines for use in subsequent experiments.
This Example illustrates representative calcium mobilization assays for use in evaluating test compounds for agonist and antagonist activity.
Cells transfected with expression plasmids (as described in Example 4) and thereby expressing human capsaicin receptor are seeded and grown to 70-90% confluency in FALCON black-walled, clear-bottomed 96-well plates (#3904, BECTON-DICKINSON, Franklin Lakes, N.J.). The culture medium is emptied from the 96 well plates and FLUO-3 AM calcium sensitive dye (Molecular Probes, Eugene, Oreg.) is added to each well (dye solution: 1 mg FLUO-3 AM, 440 μL DMSO and 440 pi 20% pluronic acid in DMSO, diluted 1:250 in Krebs-Ringer HEPES (KRH) buffer (25 mM HEPES, 5 mM KCl, 0.96 mM NaH2PO4, 1 mM MgSO4, 2 mM CaCl2, 5 mM glucose, 1 mM probenecid, pH 7.4), 50 μl diluted solution per well). Plates are covered with aluminum foil and incubated at 37° C. for 1-2 hours in an environment containing 5% CO2. After the incubation, the dye is emptied from the plates, and the cells are washed once with KRH buffer, and resuspended in KRH buffer.
To measure the ability of a test compound to agonize or antagonize a calcium mobilization response in cells expressing capsaicin receptors to capsaicin or other vanilloid agonist, the EC50 of the agonist capsaicin is first determined. An additional 20 μl of KRH buffer and 1 μl DMSO is added to each well of cells, prepared as described above. 100 μl capsaicin in KRH buffer is automatically transferred by the FLIPR instrument to each well. Capsaicin-induced calcium mobilization is monitored using either FLUOROSKAN ASCENT (Labsystems; Franklin, Mass.) or FLIPR (fluorometric imaging plate reader system; Molecular Devices, Sunnyvale, Calif.) instruments. Data obtained between 30 and 60 seconds after agonist application are used to generate an 8-point concentration response curve, with final capsaicin concentrations of 1 nM to 3 μM. KALEIDAGRAPH software (Synergy Software, Reading, Pa.) is used to fit the data to the equation: y=a*(1/(1+(b/x)^c)) to determine the 50% excitatory concentration (EC50) for the response. In this equation, y is the maximum fluorescence signal, x is the concentration of the agonist or antagonist (in this case, capsaicin), a is the Emax, b corresponds to the EC50 value and c is the Hill coefficient. Determination of Agonist Activity
Test compounds are dissolved in DMSO, diluted in 20 μl KRH buffer so that the final concentration of test compounds in the assay well is between 1 μM and 5 μM, and added to cells prepared as described above. The 96 well plates containing prepared cells and test compounds are incubated in the dark, at room temperature for 0.5 to 6 hours. It is important that the incubation not continue beyond 6 hours. Just prior to determining the fluorescence response, 100 pi capsaicin in KRH buffer at twice the EC50 concentration determined as described above is automatically added by the FLIPR instrument to each well of the 96 well plate for a final sample volume of 200 μl and a final capsaicin concentration equal to the EC50. The final concentration of test compounds in the assay wells is between 1 μM and 5 μM. […]

T1 sequence (Q8NER1 whole entry): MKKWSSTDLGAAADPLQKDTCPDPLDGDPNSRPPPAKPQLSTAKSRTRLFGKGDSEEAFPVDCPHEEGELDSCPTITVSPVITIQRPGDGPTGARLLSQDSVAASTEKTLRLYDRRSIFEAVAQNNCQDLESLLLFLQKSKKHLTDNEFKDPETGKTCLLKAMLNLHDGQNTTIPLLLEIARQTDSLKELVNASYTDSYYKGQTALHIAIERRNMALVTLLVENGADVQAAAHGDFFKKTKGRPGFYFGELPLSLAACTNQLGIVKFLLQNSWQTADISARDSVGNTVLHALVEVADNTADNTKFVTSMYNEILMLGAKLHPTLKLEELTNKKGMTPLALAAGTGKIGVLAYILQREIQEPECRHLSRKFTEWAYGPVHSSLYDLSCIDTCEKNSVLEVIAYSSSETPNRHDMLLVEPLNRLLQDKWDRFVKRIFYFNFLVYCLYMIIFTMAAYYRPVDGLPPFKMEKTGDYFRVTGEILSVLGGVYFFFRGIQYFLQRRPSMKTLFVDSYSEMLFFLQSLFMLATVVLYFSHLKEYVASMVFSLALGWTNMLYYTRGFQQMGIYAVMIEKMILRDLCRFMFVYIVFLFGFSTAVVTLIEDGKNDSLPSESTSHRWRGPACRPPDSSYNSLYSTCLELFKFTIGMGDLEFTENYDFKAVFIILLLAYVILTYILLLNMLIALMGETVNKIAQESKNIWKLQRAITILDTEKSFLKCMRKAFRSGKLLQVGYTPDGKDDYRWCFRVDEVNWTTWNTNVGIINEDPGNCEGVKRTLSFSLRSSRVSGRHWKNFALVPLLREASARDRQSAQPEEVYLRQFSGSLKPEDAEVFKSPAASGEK

Structure (SMILES) | pIC50
COc1cccc(-c2cc(N3CCN(c4ncccc4C)C[C@H]3C)nc(N3CCOCC3)n2)c1 [Example 524, 4-{4-(3-methoxyphenyl)-6-[(2R)-2-methyl-4-(3-methylpyridin-2-yl)piperazin-1-yl]pyrimidin-2-yl}morpholine] | ≥ 6.00
CCCCN1CCN(c2nc(-c3ccc(F)c(C)c3)nc(N3CCN(c4ncccc4C(F)(F)F)CC3)n2)CC1 [Example 452, 2-(4-butylpiperazin-1-yl)-4-(4-fluoro-3-methylphenyl)-6-{4-[3-(trifluoromethyl)pyridin-2-yl]piperazin-1-yl}-1,3,5-triazine] | ≥ 6.00

Same assay, conditions: Table II; determined as described in Example 6 (antagonist activity); "*" = 1 micromolar or less

Structure (SMILES) | pIC50
C[C@@H]1CN(c2nccnc2Cl)CCN1c1cc(-c2ccc(F)cc2)nc(N2CCOCC2)n1 [Example 929, 4-[4-[(2R)-4-(3-chloropyrazin-2-yl)-2-methylpiperazin-1-yl]-6-(4-fluorophenyl)pyrimidin-2-yl]morpholine] | ≥ 6.00
Cc1cc(-c2cc(N3CCCC3C)nc(N3CCN(c4ncccc4Cl)C[C@@H]3C)n2)ccc1F (stereo partly shown) [Example 917, 2-[4-(3-chloropyridin-2-yl)-2-methylpiperazin-1-yl]-4-(4-fluoro-3-methylphenyl)-6-(2-methylpyrrolidin-1-yl)pyrimidine] | ≥ 6.00
Cc1ccc(C)n1-c1nc(-c2ccc(F)cc2)cc(N2CCN(c3ncccc3C(F)(F)F)CC2)n1 [Example 875, 2-(2,5-dimethyl-1H-pyrrol-1-yl)-4-(4-fluorophenyl)-6-{4-[3-(trifluoromethyl)pyridin-2-yl]piperazin-1-yl}pyrimidine] | ≥ 6.00
C[C@@H]1CCCN1c1nc(-c2ccc(F)c(F)c2)cc(N2CCN(c3nccnc3Cl)C[C@@H]2C)n1 [Example 951, 4-[(2S)-4-(3-chloropyrazin-2-yl)-2-methylpiperazin-1-yl]-6-(3,4-difluorophenyl)-2-[(2R)-2-methylpyrrolidin-1-yl]pyrimidine] | ≥ 6.00
Cc1cc(-c2cc(N3CCN(c4ncccc4C(F)(F)F)C[C@H]3C)nc(N3CCC3(C)C)n2)ccc1F [Example 794, 2-(2,2-dimethylazetidin-1-yl)-4-(4-fluoro-3-methylphenyl)-6-{(2R)-2-methyl-4-[3-(trifluoromethyl)pyridin-2-yl]piperazin-1-yl}pyrimidine] | ≥ 6.00
O[C@H]1CCN(c2nc(-c3ccc(F)c(Cl)c3)cc(N3CCN(c4ncccc4C(F)(F)F)CC3)n2)C1 [Example 772, (3S)-1-(4-(3-chloro-4-fluorophenyl)-6-{4-[3-(trifluoromethyl)pyridin-2-yl]piperazin-1-yl}pyrimidin-2-yl)pyrrolidin-3-oI] | ≥ 6.00

Same assay, conditions: Table II; determined as described in Example 6; class symbol

Structure (SMILES) | pIC50
Cc1cc(C)cc(-c2nc(N3CCOCC3)nc(N3CCN(c4ccccn4)CC3)n2)c1 [Example 236, 2-(3,5-dimethylphenyl)-4-morpholin-4-yl-6-(4-pyridin-2-ylpiperazin-1-yl)-1,3,5-triazine] | ≥ 6.00

Same assay, conditions: determined as described in Example 6 (calcium mobilization, antagonist activity); Table II

Structure (SMILES) | pIC50
O=C1CCC(=O)N1c1nc(-c2ccc(F)c(Cl)c2)cc(N2CCN(c3ncccc3C(F)(F)F)CC2)n1 [Example 680, 1-(4-(3-chloro-4-fluorophenyl)-6-{4-[3-(trifluoromethyl)pyridin-2-yl]piperazin-1-yl}pyrimidin-2-yl)pyrrolidine-2,5-dione] | ≥ 6.00
Cc1cccnc1N1CCN(c2cc(-c3ccc(F)cc3)nc(N3CCCC3C)n2)CC1 (stereo not shown) [Example 702, 4-(4-fluorophenyl)-6-[4-(3-methylpyridin-2-yl)piperazin-1-yl]-2-(2-methylpyrrolidin-1-yl)pyrimidine] | ≥ 6.00
Cc1cc(-c2cc(N3CCN(c4ncccc4C(F)(F)F)CC3)nc(N3CCCC3)n2)ccc1F [Example 674, 4-(4-fluoro-3-methylphenyl)-2-pyrrolidin-1-yl-6-{4-[3-(trifluoromethyl)pyridin-2-yl]piperazin-1-yl}pyrimidine] | ≥ 6.00
Cc1cc(-c2cc(N3CCN(c4ncccc4C(F)(F)F)CC3)nc(N(CCO)CCO)n2)ccc1F [Example 678] | ≥ 6.00
